In the NIST ThermoML archive (doi:10.1021/je800757j):
± gives the expanded uncertainty stated by the source.

Conditions: Liquid

Row | vapor or sublimation pressure (353.15 K) | vapor or sublimation pressure (373.15 K) | vapor or sublimation pressure (393.15 K) | vapor or sublimation pressure (413.15 K) | vapor or sublimation pressure (423.15 K) | vapor or sublimation pressure (433.15 K) | vapor or sublimation pressure (453.15 K) | vapor or sublimation pressure (443.15 K) | Structure (SMILES)
1 | 1039 ± 27 kPa | 1586 ± 39 kPa | 2265 ± 56 kPa | 3156 ± 78 kPa |  |  |  |  | CCCC [butane]
2 |  | 600 ± 20 kPa |  |  | 1620 ± 40 kPa |  |  |  | CCCCC [pentane]
3 |  |  | 410 ± 17 kPa | 633 ± 20 kPa |  | 918 ± 25 kPa | 1301 ± 33 kPa |  | CCCCCC [hexane]
4 |  |  |  |  |  | 477 ± 18 kPa | 703 ± 21 kPa | 587 ± 19 kPa | CCCCCCC [heptane]
